Measurements as given in the NIST ThermoML archive (doi:10.1021/je7005743).
Numbers after ± are expanded uncertainties.

What was measured:
[1] = 298.15 K; 101.33 kPa; Liquid; Pycnometric method
[2] = excess molar enthalpy (molar enthalpy of mixing); xn = mol fraction of the nth substance listed; details: 303.15 K, 101 kPa, Liquid, Flow calorimetry

## CC(C)CC(C)(C)C [2,2,4-trimethylpentane]
[1]
  mass density: 687.91 ± 0.61 kg/m3

## CC(C)CC(C)(C)C [2,2,4-trimethylpentane] + CCO
[2]; x2 = 0.1291
  excess molar enthalpy: 0.13 ± 0.00287 kcal/mol
[2]; x2 = 0.2383
  excess molar enthalpy: 0.152 ± 0.00335 kcal/mol
[2]; x2 = 0.332
  excess molar enthalpy: 0.158 ± 0.00335 kcal/mol
[2]; x2 = 0.4132
  excess molar enthalpy: 0.157 ± 0.00335 kcal/mol
[2]; x2 = 0.4842
  excess molar enthalpy: 0.153 ± 0.00335 kcal/mol
[2]; x2 = 0.5469
  excess molar enthalpy: 0.146 ± 0.00311 kcal/mol
[2]; x2 = 0.6026
  excess molar enthalpy: 0.138 ± 0.00311 kcal/mol
[2]; x2 = 0.6525
  excess molar enthalpy: 0.129 ± 0.00287 kcal/mol
[2]; x2 = 0.6974
  excess molar enthalpy: 0.12 ± 0.00263 kcal/mol
[2]; x2 = 0.738
  excess molar enthalpy: 0.11 ± 0.00239 kcal/mol
[2]; x2 = 0.7749
  excess molar enthalpy: 0.1 ± 0.00217 kcal/mol
[2]; x2 = 0.8086
  excess molar enthalpy: 0.0898 ± 0.00196 kcal/mol
[2]; x2 = 0.8395
  excess molar enthalpy: 0.0797 ± 0.00174 kcal/mol
[2]; x2 = 0.8679
  excess molar enthalpy: 0.069 ± 0.00153 kcal/mol
[2]; x2 = 0.8942
  excess molar enthalpy: 0.0582 ± 0.00129 kcal/mol
[2]; x2 = 0.9185
  excess molar enthalpy: 0.0473 ± 0.00108 kcal/mol
[2]; x2 = 0.941
  excess molar enthalpy: 0.0357 ± 0.000837 kcal/mol
[2]; x2 = 0.962
  excess molar enthalpy: 0.024 ± 0.000598 kcal/mol
[2]; x2 = 0.9817
  excess molar enthalpy: 0.012 ± 0.000359 kcal/mol

## CCCCO [butan-1-ol]
[1]
  mass density: 805.76 ± 0.72 kg/m3

## CCC(C)O (centres undefined) [butan-2-ol]
[1]
  mass density: 802.57 ± 0.72 kg/m3

## CCO [ethanol]
[1]
  mass density: 785.32 ± 0.71 kg/m3

## CCCO [propan-1-ol]
[1]
  mass density: 799.94 ± 0.72 kg/m3

## CC(C)O [propan-2-ol]
[1]
  mass density: 781.32 ± 0.7 kg/m3

## C=COCCC [propyl vinyl ether]
[1]
  mass density: 762.96 ± 0.69 kg/m3

## C=COCCC [propyl vinyl ether] + CC(C)CC(C)(C)C
[2]; x1 = 0.0715
  excess molar enthalpy: 0.0253 ± 0.000621 kcal/mol
[2]; x1 = 0.1398
  excess molar enthalpy: 0.0464 ± 0.00105 kcal/mol
[2]; x1 = 0.2052
  excess molar enthalpy: 0.0635 ± 0.00141 kcal/mol
[2]; x1 = 0.2678
  excess molar enthalpy: 0.0775 ± 0.0017 kcal/mol
[2]; x1 = 0.3278
  excess molar enthalpy: 0.0878 ± 0.00194 kcal/mol
[2]; x1 = 0.3853
  excess molar enthalpy: 0.0954 ± 0.00208 kcal/mol
[2]; x1 = 0.4406
  excess molar enthalpy: 0.1 ± 0.0022 kcal/mol
[2]; x1 = 0.4937
  excess molar enthalpy: 0.103 ± 0.00225 kcal/mol
[2]; x1 = 0.5448
  excess molar enthalpy: 0.103 ± 0.00225 kcal/mol
[2]; x1 = 0.5939
  excess molar enthalpy: 0.101 ± 0.0022 kcal/mol
[2]; x1 = 0.6413
  excess molar enthalpy: 0.097 ± 0.00213 kcal/mol
[2]; x1 = 0.6869
  excess molar enthalpy: 0.0917 ± 0.00201 kcal/mol
[2]; x1 = 0.7309
  excess molar enthalpy: 0.0846 ± 0.00186 kcal/mol
[2]; x1 = 0.7734
  excess molar enthalpy: 0.0758 ± 0.00167 kcal/mol
[2]; x1 = 0.8144
  excess molar enthalpy: 0.0658 ± 0.00146 kcal/mol
[2]; x1 = 0.854
  excess molar enthalpy: 0.0547 ± 0.00122 kcal/mol
[2]; x1 = 0.8923
  excess molar enthalpy: 0.0418 ± 0.000956 kcal/mol
[2]; x1 = 0.9294
  excess molar enthalpy: 0.0277 ± 0.000669 kcal/mol
[2]; x1 = 0.9653
  excess molar enthalpy: 0.0138 ± 0.000382 kcal/mol

## C=COCCC [propyl vinyl ether] + CCO
[2]; x1 = 0.0265
  excess molar enthalpy: 0.014 ± 0.000382 kcal/mol
[2]; x1 = 0.0543
  excess molar enthalpy: 0.0284 ± 0.000669 kcal/mol
[2]; x1 = 0.0836
  excess molar enthalpy: 0.0441 ± 0.001 kcal/mol
[2]; x1 = 0.1145
  excess molar enthalpy: 0.0602 ± 0.00134 kcal/mol
[2]; x1 = 0.147
  excess molar enthalpy: 0.0766 ± 0.0017 kcal/mol
[2]; x1 = 0.1814
  excess molar enthalpy: 0.0936 ± 0.00206 kcal/mol
[2]; x1 = 0.2178
  excess molar enthalpy: 0.111 ± 0.00239 kcal/mol
[2]; x1 = 0.2564
  excess molar enthalpy: 0.129 ± 0.00287 kcal/mol
[2]; x1 = 0.2973
  excess molar enthalpy: 0.146 ± 0.00311 kcal/mol
[2]; x1 = 0.3409
  excess molar enthalpy: 0.164 ± 0.00359 kcal/mol
[2]; x1 = 0.3873
  excess molar enthalpy: 0.179 ± 0.00382 kcal/mol
[2]; x1 = 0.4368
  excess molar enthalpy: 0.195 ± 0.0043 kcal/mol
[2]; x1 = 0.4899
  excess molar enthalpy: 0.209 ± 0.00454 kcal/mol
[2]; x1 = 0.5468
  excess molar enthalpy: 0.221 ± 0.00478 kcal/mol
[2]; x1 = 0.608
  excess molar enthalpy: 0.229 ± 0.00502 kcal/mol
[2]; x1 = 0.6741
  excess molar enthalpy: 0.233 ± 0.00502 kcal/mol
[2]; x1 = 0.7456
  excess molar enthalpy: 0.227 ± 0.00478 kcal/mol
[2]; x1 = 0.8231
  excess molar enthalpy: 0.207 ± 0.00454 kcal/mol
[2]; x1 = 0.9076
  excess molar enthalpy: 0.157 ± 0.00335 kcal/mol
